The values that follow come from patent publication US9879032B2, “Pyridine compounds” (Daiichi Sankyo Company, Limited, priority 2015, dated 2018).

human TNAP, sequence (P05186 18-502): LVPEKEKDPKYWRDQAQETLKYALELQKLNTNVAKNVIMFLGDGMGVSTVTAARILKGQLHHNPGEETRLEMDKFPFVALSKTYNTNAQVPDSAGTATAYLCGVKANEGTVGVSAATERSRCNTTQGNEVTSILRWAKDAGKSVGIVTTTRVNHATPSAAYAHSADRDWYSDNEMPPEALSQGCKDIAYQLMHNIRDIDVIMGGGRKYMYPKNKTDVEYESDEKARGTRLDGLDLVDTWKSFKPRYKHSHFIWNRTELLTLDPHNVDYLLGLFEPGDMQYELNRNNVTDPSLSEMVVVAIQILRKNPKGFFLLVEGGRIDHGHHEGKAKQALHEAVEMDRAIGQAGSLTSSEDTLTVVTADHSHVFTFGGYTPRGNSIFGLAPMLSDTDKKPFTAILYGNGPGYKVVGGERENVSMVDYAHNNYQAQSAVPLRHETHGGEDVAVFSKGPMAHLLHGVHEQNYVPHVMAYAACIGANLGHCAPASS

In this assay the target is human TNAP (Homo sapiens (Human), UniProt P05186). Briefly: Inhibitory test of TNAP activity (pNPP substrate, p-nitrophenol production). Format: biochemical. Conditions: inhibition of human TNAP activity, incubated at room temperature for 60 minutes. How it is done:
COS 1 cells (DS Pharma Biomedical Co., Ltd.) were transfected with human TNAP (OriGene Technologies, Inc.) using Lipofectamine LTX & Plus reagent (Invitrogen Corp.). On the next day, the medium was replaced with a fresh medium, and the cells were cultured in an incubator for 3 days. After 3 days, the culture supernatant was collected and concentrated by centrifugation at 5000 G for 30 minutes using Amicon 14, 10^4 cut (Merck Millipore). The concentrated culture supernatant was dialyzed against 5 L of 50 mM Tris/200 mM NaCl/1 mM MgCl2/20 μM ZnCl2 twice and used as an enzyme source (enzyme solution). The substrate pNPP (ProteoChem Inc.) was adjusted to 3.1 mM with Milli-Q water, and a solution of each test compound dissolved in dimethyl sulfoxide (DMSO; Wako Pure Chemical Industries, Ltd.) by 6 serial dilutions at a 5-fold common ratio from 100 μM, or DMSO was added thereto at a final concentration of 1% by volume. The enzyme solution adjusted to 2 μg/mL with an assay buffer (200 mM Tris/2 mM MgCl2/0.04 mM ZnCl2/0.01% Tween 20) was added in the same amount of the substrate solution and incubated at room temperature for 60 minutes. Then, the absorbance (ABS: 405 nm) was measured using a microplate reader (model plus 384, Molecular Devices, LLC), and the concentration of produced p-nitrophenol was calculated.
In turn, `COc1ccc(Cl)cc1S(=O)(=O)Nc1cnc2c(c1)C(=O)N(C)[C@@H](C)CO2` [Example 18, 5-Chloro-N-[(3S)-3,4-dimethyl-5-oxo-2,3,4,5-tetrahydropyrido[3,2-f][1,4]oxazepin-7-yl]-2-methoxybenzenesulfonamide] came in with a half-inhibitory concentration (IC50) of 3.9 nM.
`COc1ccc(Cl)cc1S(=O)(=O)Nc1cnc2c(c1)C(=O)N(C)CCO2` [Example 1, 5-Chloro-2-methoxy-N-(4-methyl-5-oxo-2,3,4,5-tetrahydropyrido[3,2-f][1,4]oxazepin-7-yl)benzenesulfonamide] registered an IC50 of 6.3 nM.
The result for `COc1ccc(CN2CCOc3ncc(NS(=O)(=O)c4cc(Cl)ccc4OC)cc3C2=O)c(OC)c1` [Example 8, 5-Chloro-N-[4-(2,4-dimethoxybenzyl)-5-oxo-2,3,4,5-tetrahydropyrido[3,2-f][1,4]oxazepin-7-yl]-2-methoxybenzenesulfonamide] reads 9.1 nM; that for `O=C1NC2(CC2)COc2ncc(NS(=O)(=O)c3cc(F)ccc3OC(F)(F)F)cc21` [Example 41, 5-Fluoro-N-(5′-oxo-4′,5′-dihydrospiro[cyclopropane-1,3′-pyrido[3,2-f][1,4]oxazepin]-7′-yl)-2-(trifluoromethoxy)benzenesulfonamide], 2.7 nM.
`COc1ccc(OC)c(S(=O)(=O)Nc2cnc3c(c2)C(=O)NCCO3)c1` [Example 11, 2,5-Dimethoxy-N-(5-oxo-2,3,4,5-tetrahydropyrido[3,2-f][1,4]oxazepin-7-yl)benzenesulfonamide] came in with a concentration for half-maximal inhibition (IC50) of 4.8 nM.
`COc1ccc(Cl)cc1S(=O)(=O)Nc1cnc2c(c1)C(=O)NC(C(=O)N(C)C)CO2` (stereo not drawn) [Example 45, 7-{[(5-Chloro-2-methoxyphenyl)sulfonyl]amino}-N,N-dimethyl-5-oxo-2,3,4,5-tetrahydropyrido[3,2-f][1,4]oxazepine-3-carboxamide] had a half-maximal inhibitory concentration (IC50) of 14.6 nM.
Regarding `O=C1NC2(CC2)COc2ncc(NS(=O)(=O)c3cc(Cl)ccc3OC(F)(F)F)cc21` [Example 40, 5-Chloro-N-(5′-oxo-4′,5′-dihydrospiro[cyclopropane-1,3′-pyrido[3,2-f][1,4]oxazepin]-7′-yl)-2-(trifluoromethoxy)benzenesulfonamide], the IC50 came out at 1.9 nM.
In turn, `COc1ccc(F)cc1S(=O)(=O)Nc1cnc2c(c1)C(=O)N(C)CCO2` [Example 2, 5-Fluoro-2-methoxy-N-(4-methyl-5-oxo-2,3,4,5-tetrahydropyrido[3,2-f][1,4]oxazepin-7-yl)benzenesulfonamide] registered an IC50 of 12.7 nM.
With `COc1ccccc1S(=O)(=O)Nc1cnc2c(c1)C(=O)NCCO2` [Example 12, 2-Methoxy-N-(5-oxo-2,3,4,5-tetrahydropyrido[3,2-f][1,4]oxazepin-7-yl)benzenesulfonamide], the IC50 was found to be 13.4 nM.
As to `COc1ccc(Cl)cc1S(=O)(=O)Nc1cnc2c(c1)C(=O)N[C@@H](CC(=O)N(C)C)CO2` [Example 34, 2-[(3S)-7-{[(5-Chloro-2-methoxyphenyl)sulfonyl]amino}-5-oxo-2,3,4,5-tetrahydropyrido[3,2-f][1,4]oxazepin-3-yl]-N,N-dimethylacetamide], the IC50 is 6.7 nM.
As for `COc1ccc(Cl)cc1S(=O)(=O)Nc1cnc2c(c1)C(=O)N(c1ccccc1)CCO2` [Example 37, 5-Chloro-2-methoxy-N-(5-oxo-4-phenyl-2,3,4,5-tetrahydropyrido[3,2-f][1,4]oxazepin-7-yl)benzenesulfonamide], the midpoint of inhibition, the IC50, lay at 43.4 nM.
`CCN1CCOc2ncc(NS(=O)(=O)c3cc(Cl)ccc3OC)cc2C1=O` [Example 3, 5-Chloro-N-(4-ethyl-5-oxo-2,3,4,5-tetrahydropyrido[3,2-f][1,4]oxazepin-7-yl)-2-methoxybenzenesulfonamide] yielded an IC50 of 12.8 nM.
With `COc1ccc(Cl)cc1S(=O)(=O)Nc1cnc2c(c1)C(=O)NC(C(=O)N1CCOCC1)CO2` (stereo not drawn) [Example 46, 5-chloro-2-methoxy-N-[3-(morpholin-4-ylcarbonyl)-5-oxo-2,3,4,5-tetrahydropyrido[3,2-f][1,4]oxazepin-7-yl]benzenesulfonamide], the midpoint of inhibition, the IC50, lay at 25.2 nM.
Compound `COc1ccc(Cl)cc1S(=O)(=O)Nc1cnc2c(c1)C(=O)N[C@@H](CCO)CO2` [Example 33, 5-Chloro-N-[(3S)-3-(2-hydroxyethyl)-5-oxo-2,3,4,5-tetrahydropyrido[3,2-f][1,4]oxazepin-7-yl]-2-methoxybenzenesulfonamide] gave a concentration for half-maximal inhibition (IC50) of 1.9 nM.
Regarding `COc1ccc(OC)c(S(=O)(=O)Nc2cnc3c(c2)C(=O)N[C@@H](CO)CO3)c1` [Example 30, N-[(3S)-3-(Hydroxymethyl)-5-oxo-2,3,4,5-tetrahydropyrido[3,2-f][1,4]oxazepin-7-yl]-2,5-dimethoxybenzenesulfonamide], the half-inhibitory concentration (IC50) stood at 3.8 nM.
Compound `COc1ccc(F)cc1S(=O)(=O)Nc1cnc2c(c1)C(=O)N[C@@H](C)CO2` [Example 23, 5-Fluoro-2-methoxy-N-[(3S)-3-methyl-5-oxo-2,3,4,5-tetrahydropyrido[3,2-f][1,4]oxazepin-7-yl]benzenesulfonamide] gave a half-maximal inhibitory concentration (IC50) of 3.5 nM.
In turn, `COc1ccc(Cl)cc1S(=O)(=O)Nc1cnc2c(c1)C(=O)N(CCO)CCO2` [Example 6, 5-Chloro-N-[4-(2-hydroxyethyl)-5-oxo-2,3,4,5-tetrahydropyrido[3,2-f][1,4]oxazepin-7-yl]-2-methoxybenzenesulfonamide] gave a 50% inhibitory concentration (IC50) of 6.1 nM.
In turn, `CC[C@H]1COc2ncc(NS(=O)(=O)c3cc(Cl)ccc3OC)cc2C(=O)N1C` [Example 24, 5-Chloro-N-[(3S)-3-ethyl-4-methyl-5-oxo-2,3,4,5-tetrahydropyrido[3,2-f][1,4]oxazepin-7-yl]-2-methoxybenzenesulfonamide] showed an IC50 of 7.2 nM.
The result for `COc1ccc(Cl)cc1S(=O)(=O)Nc1cnc2c(c1)C(=O)NCCO2` [Example 9, 5-Chloro-2-methoxy-N-(5-oxo-2,3,4,5-tetrahydropyrido[3,2-f][1,4]oxazepin-7-yl)benzenesulfonamide] reads 1.4 nM; that for `CCOc1ccc(F)cc1S(=O)(=O)Nc1cnc2c(c1)C(=O)NC1(CC1)CO2` [Example 42, 2-Ethoxy-5-fluoro-N-(5′-oxo-4′,5′-dihydrospiro[cyclopropane-1,3′-pyrido[3,2-f][1,4]oxazepin]-7′-yl)benzenesulfonamide], 0.6 nM.
For the compound `COc1ccc(Br)cc1S(=O)(=O)Nc1cnc2c(c1)C(=O)N[C@@H](CO)CO2` [Example 29, 5-Bromo-N-[(3S)-3-(hydroxymethyl)-5-oxo-2,3,4,5-tetrahydropyrido[3,2-f][1,4]oxazepin-7-yl]-2-methoxybenzenesulfonamide], the IC50 is 1.2 nM.
Take `O=C1NCCOc2ncc(NS(=O)(=O)c3cc(Cl)ccc3OC(F)(F)F)cc21` [Example 13, 5-Chloro-N-(5-oxo-2,3,4,5-tetrahydropyrido[3,2-f][1,4]oxazepin-7-yl)-2-(trifluoromethoxy)benzenesulfonamide]: the IC50 came to 3.4 nM.
`COc1ccc(F)cc1S(=O)(=O)Nc1cnc2c(c1)C(=O)N[C@@H](CO)CO2` [Example 28, 5-Fluoro-N-[(3S)-3-(hydroxymethyl)-5-oxo-2,3,4,5-tetrahydropyrido[3,2-f][1,4]oxazepin-7-yl]-2-methoxybenzenesulfonamide] showed an IC50 of 3.6 nM.
With `COCCN1CCOc2ncc(NS(=O)(=O)c3cc(Cl)ccc3OC)cc2C1=O` [Example 7, 5-Chloro-2-methoxy-N-[4-(2-methoxyethyl)-5-oxo-2,3,4,5-tetrahydropyrido[3,2-f][1,4]oxazepin-7-yl]benzenesulfonamide], the IC50 was 10.7 nM.

The IC50 is the concentration at which inhibition is half-maximal. Read a high IC50 as weaker potency in that assay.
